# In paper PMC11783063, “Design, synthesis, and apoptotic antiproliferative action of new benzimidazole/1,2,3-triazole hybrids as EGFR inhibitors” (Frontiers in Chemistry, 2025):
# How the values were obtained:
# EGFR = EGFR (Homo sapiens, UniProt P00533); design: method as in Ihmaid et al., 2021; conditions: ref Ihmaid et al., 2021; read-out: EGFR inhibition IC50; cited from earlier work
# Bax = Bax activation assay in MCF-7 cells; type: cell-based, human
# Experimental: (§1) The current study supplied compounds 6i and 10e to breast (MCF-7) cancer cell lines at their respective IC50 values. This led to a notable elevation of pro-apoptotic Bax expression, with a fold increase of 34 for compound 6i and 36 for compound 10e.
# (§2) Compounds 6i and 10e were assessed for their ability to activate caspase-3, caspase-8, and Bax, as well as to downregulate the anti-apoptotic protein Bcl2 in the MCF-7 breast cancer cell line ([Abdelbaset et al., 2019]). Supplementary Appendix A provides more details.
# Bring all reagents, except the human Bax-α Standard, to room temperature for at least 30 minutes prior to opening. The human Bax-α Standard solution should not be left at room temperature for more than 10 minutes. All standards, controls and samples should be run in duplicate. Refer to the Assay Layout Sheet to determine the number of wells to be used and put any remaining wells with the desiccant back into the pouch and seal the ziploc. Store unused wells at 4 °C. Pipet 100 μL of Assay Buffer into the S0 (0 pg/mL standard) wells. Pipet 100 μL of Standards #1 through #6 into the appropriate wells. Pipet 100 μL of the Samples into the appropriate wells. Tap the plate gently to mix the contents. Seal the plate and incubate at room temperature on a plate shaker for 1 hour at ~500 rpm. Empty the contents of the wells and wash by adding 400 μL of wash solution to every well. Repeat the wash 4 more times for a total of 5 washes. After the final wash, empty or aspirate the wells and firmly tap the plate on a lint free paper towel to remove any remaining wash buffer. Pipet 100 μL of yellow Antibody into each well, except the Blank. Seal the plate and incubate at room temperature on a plate shaker for 1 hour at ~500 rpm. Empty the contents of the wells and wash by adding 400 μL of wash solution to every well. Repeat the wash 4 more times for a total of 5 washes. After the final wash, empty or aspirate the wells and firmly tap the plate on a lint free paper towel to remove any remaining wash buffer. Add 100 μL of blue Conjugate to each well, except the Blank. Seal the plate and incubate at room temperature on a plate shaker for 30 minutes at ~500 rpm. Empty the contents of the wells and wash by adding 400 μL of wash solution to every well. Repeat the wash 4 more times for a total of 5 washes. After the final wash, empty or aspirate the wells and firmly tap the plate on a lint free paper towel to remove any remaining wash buffer. Pipet 100 μL of Substrate Solution into each well. Incubate for 30 minutes at room temperature on a plate shaker at ~500 rpm. Pipet 100 μL Stop Solution to each well. Blank the plate reader against the Blank wells, read the optical density at 450 nm. Calculate the average net Optical Density (OD) bound for each standard and sample by subtracting the average Blank OD from the average OD for each standard and sample. Using linear graph paper, plot the Average Net OD for each standard versus Bax concentration in each standard. Approximate a straight line through the points. The concentration of Bax in the unknowns can be determined by interpolation.
# caspase-8 = experiment: Caspase-8 activation assay in MCF-7 cells; type: cell-based, human
# Experimental: (§3) Cells experience apoptosis in reaction to specific signaling cues, resulting in significant modifications. […] They decompose vital cellular components, including nuclear proteins, such as DNA repair enzymes and structural proteins within the cytoskeleton, essential for optimal cellular function.
# (§4) Supplementary Appendix A provides more details.
# The absorbance of each microwell was read on a spectrophotometer at 450 nm. A standard curve is prepared from 7human Caspase-8 standard dilutions and human Caspase-8 concentration determined.
# caspase-3 = experiment: Caspase-3 activation assay in MCF-7 cells; type: cell-based, human; conditions: vs untreated control
# Source text: as §3, §4
# Allow all reagents to reach room temperature before use. Gently mix all liquid reagents prior to use. Determine the number of 8-well strips needed for the assay. Insert these in the frame(s) for current use. Add 100 μl of the Standard Diluent Buffer to the zero standard wells. Well(s) reserved for chromogen blank should be left empty. Add 100 μl of standards and controls or diluted samples to the appropriate microtiter wells. The sample dilution chosen should be optimized for each experimental system. Tap gently on the side of plate to mix. Cover wells with plate cover and incubate for 2 hours at room temperature. Thoroughly aspirate or decant solution from wells and discard the liquid, Wash wells 4 times. […] Tap gently on the side of the plate to mix. Cover plate with plate cover and incubate for 1 hour at room temperature. Thoroughly aspirate or decant solution from wells and discard the liquid, Wash wells 4 times. Add 100 μl Anti-Rabbit IgG HRP Working Solution to each well except the chromogen blank(s). Prepare the working dilution as described in Preparing IgG HRP. Cover wells with the plate cover and incubate for 30 minutes at room temperature. Thoroughly aspirate or decant solution from wells and discard the liquid. Wash wells 4 times. Add 100 μl of Stabilized Chromogen to each well. The liquid in the wells will begin to turn blue. Incubate for 30 minutes at room temperature and in the dark. The incubation time for chromogen substrate is often determined by the microtiter plate reader used. […] The O.D. values should be monitored, and the substrate reaction stopped before the O.D. of the positive wells exceeds the limits of the instrument. The O.D. values at 450 nm can only be read after the Stop Solution has been added to each well. […] Add 100 μl of Stop Solution to each well. Tap side of plate gently to mix. The solution in the wells should change from blue to yellow. Read the absorbance of each well at 450 nm having blanked the plate reader against a chromogen blank composed of 100 μl each of Stabilized Chromogen and Stop Solution. Read the plate within 2 hours after adding the Stop Solution. Use a curve fitting software to generate the standard curve. […] Read the concentrations for unknown samples and controls from the standard curve. Multiply value(s) obtained for sample(s) by the appropriate dilution factor to correct for the dilution in step 3.
# Bcl-2 = Bcl-2 inhibition assay in MCF-7 cells; type: cell-based, human
# Experimental: as §1, §2
# Mix all the reagents thoroughly without foaming before use. Wash the microwells twice with approximately 300 μL Wash Buffer per well with thorough aspiration of microwell contents between washes. Take caution not to scratch the surface of the microwells. After the last wash, empty the wells and tap microwell strips on an absorbent pad or paper towel to remove excess Wash Buffer. Use the microwell strips immediately after washing or place upside down on a wet absorbent paper for not longer than 15 minutes. […] Add 100 μL of Sample Diluent in duplicate to all standard wells and to the blank wells. Prepare standard (1:2 dilution) in duplicate ranging from 32 ng/mL to 0.5 ng/mL. Add 100 μL of Sample Diluent, in duplicate, to the blank wells. Add 80 μL of Sample Diluent, in duplicate, to the sample wells. Add 20 μL of each Sample, in duplicate, to the designated wells. Add 50 μL of diluted biotin-conjugate to all wells, including the blank wells. Cover with a plate cover and incubate at room temperature, on a microplate shaker at 100 rpm if available, for 2 hours. Remove plate cover and empty the wells. Wash microwell strips 3 times as described in step 2. Add 100 μL of diluted Streptavidin-HRP to all wells, including the blank wells. Cover with a plate cover and incubate at room temperature, on a microplate shaker at 100 rpm if available, for 1 hour. Remove the plate cover and empty the wells. Wash microwell strips 3 times as described in step 2. Proceed to the next step. Pipette 100 μl of mixed TMB Substrate Solution to all wells, including the blanks. Incubate the microwell strips at room temperature (18° to 25°C) for about 15 minutes, if available on a rotator set at 100 rpm. Avoid direct exposure to intense light. The point, at which the substrate reaction is stopped, is often determined by the ELISA reader. Many ELISA readers record absorbance only up to 2.0 O.D. Therefore, the color development within individual microwells must be watched by the person running the assay and the substrate reaction stopped before positive wells are no longer properly detectable. Stop the enzyme reaction by quickly pipetting 100 μL of Stop Solution into each well, including the blank wells. It is important that the Stop Solution is spread quickly and uniformly throughout the microwells to completely inactivate the enzyme. Results must be read immediately after the Stop Solution is added or within one hour if the microwell strips are stored at 2 - 8°C in the dark. Read the absorbance of each microwell on a spectrophotometer using 450 nm as the primary wavelength.
# [1] = tested on: leukemia subpanel of 60 human carcinoma cell lines; design: method as in Youssif et al., 2024; conditions: NCI five-dose, ref Youssif et al., 2024; cited from earlier work
# Chain of EGFR (P00533 669-1210): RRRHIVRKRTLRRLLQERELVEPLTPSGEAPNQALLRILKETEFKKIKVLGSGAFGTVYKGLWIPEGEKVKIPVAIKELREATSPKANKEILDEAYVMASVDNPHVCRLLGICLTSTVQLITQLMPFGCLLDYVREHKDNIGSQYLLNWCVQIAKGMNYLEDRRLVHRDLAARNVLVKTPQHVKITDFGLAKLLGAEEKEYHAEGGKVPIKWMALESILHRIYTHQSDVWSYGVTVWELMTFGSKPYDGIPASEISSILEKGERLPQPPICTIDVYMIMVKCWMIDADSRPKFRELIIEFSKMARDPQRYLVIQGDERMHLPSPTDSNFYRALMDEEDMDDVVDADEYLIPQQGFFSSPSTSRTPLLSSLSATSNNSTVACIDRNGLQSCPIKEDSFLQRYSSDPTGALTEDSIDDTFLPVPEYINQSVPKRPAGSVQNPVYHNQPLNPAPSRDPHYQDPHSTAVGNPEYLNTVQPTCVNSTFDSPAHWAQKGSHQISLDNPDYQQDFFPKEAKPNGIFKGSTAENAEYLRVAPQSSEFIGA
smiles,measurement,setting,value
Cc1ccc(NC(=O)Cn2cc(CN3C(=O)c4cc(Cl)c(Cl)cc4C3=O)nn2)cc1F [III],IC50,EGFR,79 nM
"CN[C@@H]1C[C@H]2O[C@@](C)([C@@H]1OC)n1c3ccccc3c3c4c(c5c6ccccc6n2c5c31)C(=O)NC4 [Staurosporine, reference compound]",Bax Conc,Bax; compound at its IC50,288 ± 2 pg/mL
same,Bax Fold change,Bax; vs untreated control,32
same,Caspase-8 Conc,caspase-8; compound at its IC50 concentration,1.50 ± 0.10 ng/mL
same,Caspase-8 Fold change,caspase-8; vs untreated control,17
same,Caspase-3 Fold change,caspase-3,7
same,Bcl-2 Conc,Bcl-2; compound at its IC50,1.20 ng/mL
same,Bcl-2 Fold reduction,Bcl-2; vs untreated control,4
O=C(N/N=C/c1ccc([N+](=O)[O-])cc1)c1ccc2[nH]c(-c3ccc(Cl)cc3)nc2c1 [I],Selectivity ratio towards the leukemia subpanel at the GI50 level,[1],5.96
